Reference: US9695180B2 (Incyte Corporation, priority 2014, dated 2017)
pIC50: −log10 of the molar value. Where two headings read alike, the source gives them in different places.

Target: LSD-1 enzyme (Homo sapiens (Human), UniProt O60341)
Assay: LANCE LSD1/KDM1A demethylase assay (LSD1 histone demethylase biochemical assay)
Experimental: Example A: LSD1 Histone Demethylase Biochemical Assay
LANCE LSD1/KDM1A demethylase assay—10 μL of 1 nM LSD-1 enzyme (ENZO BML-SE544-0050) in the assay buffer (50 mM Tris, pH 7.5, 0.01% Tween-20, 25 mM NaCl, 5 mM DTT) were preincubated for 1 hour at 25° C. with 0.8 μL compound/DMSO dotted in black 384 well polystyrene plates. […] Reactions were stopped by addition of 10 μL 1× LANCE Detection Buffer (PerkinElmer CR97-100) supplemented with 1.5 nM Eu-anti-unmodified H3K4 Antibody (PerkinElmer TRF0404), and 225 nM LANCE Ultra Streptavidin (PerkinElmer TRF102) along with 0.9 mM Tranylcypromine-HCl (Millipore 616431). After stopping the reactions plates were incubated for 30 minutes and read on a PHERAstar FS plate reader (BMG Labtech).

[1] = 1 nM LSD-1 enzyme, 1 hour preincubation at 25° C., Biotin-labeled Histone H3 peptide substrate, read-out: IC50

Structure (SMILES)	pIC50 [1]	pIC50
CN1CCC[C@@H](COc2nc(-c3ccc(C#N)cc3)c(-c3ccc4c(c3)CC(O)C4)n3ccnc23)C1 (single isomer, unassigned) [78 (peak 1)]	> 7.30	
CN1CCC[C@@H](COc2nc(-c3ccc(C#N)cc3)c(-c3ccc4c(c3)CC(O)C4)n3ccnc23)C1 (single isomer, unassigned) [78 (peak 2)]	> 7.30	
Cc1ccc(-c2c(-c3ccc(C#N)cc3)nc(CO[C@@H]3CCNC3)c3nccn23)cc1 [Example 3, 4-(5-(4-methylphenyl)-8-{[(3R)-pyrrolidin-3-yloxy]methyl}imidazo[1,2-a]pyrazin-6-yl)benzonitrile]		6.30 to 7.30
Cc1ccc(-c2c(-c3ccc(C#N)cc3)nc(CCN3CC[C@@H](N(C)C)C3)c3nccn23)cc1 [Example 6, 4-[8-{2-[(3R)-3-(dimethylamino)pyrrolidin-1-yl]ethyl}-5-(4-methylphenyl)imidazo[1,2-a]pyrazin-6-yl]benzonitrile]		6.00 to 6.30
Cc1ccc(-c2c(-c3ccc(C#N)cc3)nc(OCCCN(C)C)c3nccn23)cc1 [Example 8, 4-[8-[3-(dimethylamino)propoxy]-5-(4-methylphenyl)imidazo[1,2-a]pyrazin-6-yl]benzonitrile]		6.30 to 7.30
Cc1ccc(-c2c(-c3ccc(C#N)cc3)nc(N(C)CCCN(C)C)c3nccn23)cc1 [Example 15, 4-[8-[[3-(dimethylamino)propyl](methyl)amino]-5-(4-methylphenyl)imidazo[1,2-a]pyrazin-6-yl]benzonitrile]		6.30 to 7.30
Cc1ccc(-c2c(-c3ccc(C#N)cc3)nc(NCCC3CCCN3C)c3nccn23)cc1 (stereo not shown) [Example 16, 4-(5-(4-methylphenyl)-8-{[2-(1-methylpyrrolidin-2-yl)ethyl]amino}imidazo[1,2-a]pyrazin-6-yl)benzonitrile]		6.30 to 7.30
Cc1ccc(-c2c(-c3ccc(C#N)cc3)nc(NC3CCN(C)CC3)c3nccn23)cc1 [Example 17, 4-{5-(4-methylphenyl)-8-[(1-methylpiperidin-4-yl)amino]imidazo[1,2-a]pyrazin-6-yl}benzonitrile]		6.30 to 7.30
Cc1ccc(-c2c(-c3ccc(C#N)cc3)nc(N(C)C(=O)N3CC[C@@H](N(C)C)C3)c3nccn23)cc1 [Example 21, (3R)—N-[6-(4-cyanophenyl)-5-(4-methylphenyl)imidazo[1,2-a]pyrazin-8-yl]-3-(dimethylamino)-N-methylpyrrolidine-1-carboxamide]		6.30 to 7.30
Cc1ccc(-c2c(-c3ccc(C#N)cc3)nc(N(C)C(=O)N3CC[C@H](N(C)C)C3)c3nccn23)cc1 [Example 22, (3S)—N-[6-(4-cyanophenyl)-5-(4-methylphenyl)imidazo[1,2-a]pyrazin-8-yl]-3-(dimethylamino)-N-methylpyrrolidine-1-carboxamide]		6.00 to 6.30
Cc1ccc(-c2c(-c3ccc(C#N)cc3)nc(NCCc3csc(N)n3)c3nccn23)cc1 [Example 23, 4-[8-{[2-(2-amino-1,3-thiazol-4-yl)ethyl]amino}-5-(4-methylphenyl)imidazo[1,2-a]pyrazin-6-yl]benzonitrile]		6.30 to 7.30
Cc1ccc(-c2c(-c3ccc(C#N)cc3)nc(C(=O)NCC3CNC3)c3nccn23)cc1 [Example 24, N-(azetidin-3-ylmethyl)-6-(4-cyanophenyl)-5-(4-methylphenyl)imidazo[1,2-a]pyrazine-8-carboxamide]		6.30 to 7.30
Cc1ccc(-c2c(-c3ccc(C#N)cc3)nc(C(=O)NC3CN(C)C3)c3nccn23)cc1 [Example 25, 6-(4-cyanophenyl)-N-(1-methylazetidin-3-yl)-5-(4-methylphenyl)imidazo[1,2-a]pyrazine-8-carboxamide]		6.30 to 7.30
N#Cc1ccc(-c2nc(OC[C@@H]3CCNC3)c3nccn3c2-c2ccccc2)cc1 [Example 26, 4-{(5-phenyl)-8-[(3R)-pyrrolidin-3-ylmethoxy]imidazo[1,2-a]pyrazin-6-yl}benzonitrile]		6.30 to 7.30
N#Cc1ccc(-c2nc(OC[C@@H]3CCNC3)c3nccn3c2-c2ccc(Cl)cc2)cc1 [Example 27, 4-{5-(4-chlorophenyl)-8-[(3R)-pyrrolidin-3-ylmethoxy]imidazo[1,2-a]pyrazin-6-yl}benzonitrile]		6.30 to 7.30
N#Cc1ccc(-c2nc(OC[C@@H]3CCNC3)c3nccn3c2-c2ccc(C(F)(F)F)cc2)cc1 [Example 28, 4-{8-[(3R)-pyrrolidin-3-ylmethoxy]-5-[4-(trifluoromethyl)phenyl]imidazo[1,2-a]pyrazin-6-yl}benzonitrile]		6.30 to 7.30

Structure (SMILES)	pIC50 [1]	pIC50
CN(C)c1ncc(-c2c(-c3ccc(C#N)cc3)nc(OC[C@@H]3CCNC3)c3nccn23)cn1 [Example 31, 4-{5-[2-(dimethylamino)pyrimidin-5-yl]-8-[(3R)-pyrrolidin-3-ylmethoxy]imidazo[1,2-a]pyrazin-6-yl}benzonitrile]		6.30 to 7.30
CN1CC[C@@H](COc2nc(-c3ccc(C#N)cc3)c(-c3ccc(N(C)C)nc3)n3ccnc23)C1 [Example 32, 4-(5-[6-(dimethylamino)pyridin-3-yl]-8-{[(3R)-1-methylpyrrolidin-3-yl]methoxy}imidazo[1,2-a]pyrazin-6-yl)benzonitrile]		6.30 to 7.30
Cc1ccc(-c2c(-c3ccc(C#N)cc3)nc(OC[C@@H]3CCNC3)c3nc(C(F)(F)F)cn23)cc1 [Example 34, 4-[5-(4-methylphenyl)-8-[(3R)-pyrrolidin-3-ylmethoxy]-2-(trifluoromethyl)imidazo[1,2-a]pyrazin-6-yl]benzonitrile]		6.30 to 7.30
Cc1ccc(-c2cn3c(-c4ccc(C)cc4)c(-c4ccc(C#N)cc4)nc(OC[C@@H]4CCNC4)c3n2)cc1 [Example 35, 4-{2,5-bis(4-methylphenyl)-8-[(3R)-pyrrolidin-3-ylmethoxy]imidazo[1,2-a]pyrazin-6-yl}benzonitrile]		6.30 to 7.30
CN1CCC[C@@H](COc2nc(-c3ccc(C#N)cc3)c(-c3ccc(N4CCCC4=O)nc3)n3ccnc23)C1 [Example 48, 4-{8-{[(3R)-1-methylpiperidin-3-yl]methoxy}-5-[6-(2-oxopyrrolidin-1-yl)pyridin-3-yl]imidazo[1,2-a]pyrazin-6-yl}benzonitrile]		6.30 to 7.30
CN1CCC[C@@H](COc2nc(-c3ccc(C#N)cc3)c(-c3ccc4c(c3)OCC(=O)N4C)n3ccnc23)C1 [Example 49, 4-(5-(4-methyl-3-oxo-3,4-dihydro-2H-1,4-benzoxazin-7-yl)-8-{[(3R)-1-methylpiperidin-3-yl]methoxy}imidazo[1,2-a]pyrazin-6-yl)benzonitrile]		6.30 to 7.30
CN1CCC[C@@H](COc2nc(-c3ccc(C#N)cc3)c(-c3ccc4c(c3)OCCO4)n3ccnc23)C1 [Example 50, 4-(5-(2,3-dihydro-1,4-benzodioxin-6-yl)-8-{[(3R)-1-methylpiperidin-3-yl]methoxy}imidazo[1,2-a]pyrazin-6-yl)benzonitrile]		6.30 to 7.30
CN1CCC[C@@H](COc2nc(-c3ccc(C#N)cc3)c(-c3ccc(N(C)C)nc3)n3ccnc23)C1 [Example 51, 4-(5-[6-(dimethylamino)pyridin-3-yl]-8-{[(3R)-1-methylpiperidin-3-yl]methoxy}imidazo[1,2-a]pyrazin-6-yl)benzonitrile]		6.30 to 7.30
CN1CCC[C@@H](COc2nc(-c3ccc(C#N)cc3)c(-c3cnc4c(cnn4C)c3)n3ccnc23)C1 [Example 54, 4-[8-{[(3R)-1-methylpiperidin-3-yl]methoxy}-5-(1-methyl-1H-pyrazolo[3,4-b]pyridin-5-yl)imidazo[1,2-a]pyrazin-6-yl]benzonitrile]		6.30 to 7.30
CN1CCC[C@@H](COc2nc(-c3ccc(C#N)cc3)c(-c3ccc4scnc4c3)n3ccnc23)C1 [Example 55, 4-(5-(1,3-benzothiazol-5-yl)-8-{[(3R)-1-methylpiperidin-3-yl]methoxy}imidazo[1,2-a]pyrazin-6-yl)benzonitrile]		6.30 to 7.30
CN(C)[C@H]1CCN(Cc2nc(-c3ccc(C#N)cc3)c(-c3ccc(N4CCCC4=O)nc3)n3ccnc23)C1 [Example 56, 4-{8-{[(3S)-3-(dimethylamino)pyrrolidin-1-yl]methyl}-5-[6-(2-oxopyrrolidin-1-yl)pyridin-3-yl]imidazo[1,2-a]pyrazin-6-yl}benzonitrile]		6.30 to 7.30
CCN1CCC[C@@H](COc2nc(-c3ccc(C#N)cc3)c(-c3cnc4c(ccn4C)c3)n3ccnc23)C1 [Example 61, 4-[8-{[(3R)-1-ethylpiperidin-3-yl]methoxy}-5-(1-methyl-1H-pyrrolo[2,3-b]pyridin-5-yl)imidazo[1,2-a]pyrazin-6-yl]benzonitrile]		6.30 to 7.30
CCN1CCC[C@@H](COc2nc(-c3ccc(C#N)cc3)c(-c3ccc4c(c3)oc(=O)n4C)n3ccnc23)C1 [Example 63, 4-[8-{[(3R)-1-ethylpiperidin-3-yl]methoxy}-5-(3-methyl-2-oxo-2,3-dihydro-1,3-benzoxazol-6-yl)imidazo[1,2-a]pyrazin-6-yl]benzonitrile]		6.30 to 7.30
Cn1c(=O)oc2cc(-c3c(-c4ccc(C#N)cc4)nc(OC[C@@H]4CCCN(CCC#N)C4)c4nccn34)ccc21 [Example 64, 4-[8-{[(3R)-1-(2-cyanoethyl)piperidin-3-yl]methoxy}-5-(3-methyl-2-oxo-2,3-dihydro-1,3-benzoxazol-6-yl)imidazo[1,2-a]pyrazin-6-yl]benzonitrile]		6.30 to 7.30
Cc1ccc(-c2c(-c3ccc(C#N)cc3)nc(OC[C@@H]3CCCN(C)C3)c3nccn23)cc1CN1CCN(S(C)(=O)=O)CC1 [Example 71, 4-(5-(4-methyl-3-{[4-(methylsulfonyl)piperazin-1-yl]methyl}phenyl)-8-{[(3R)-1-methylpiperidin-3-yl]methoxy}imidazo[1,2-a]pyrazin-6-yl)benzonitrile]		6.30 to 7.30
